Reference: paper PMC7570694, “Design, Synthesis, and Structure–Activity Relationships of Thiazole Analogs as Anticholinesterase Agents for Alzheimer’s Disease” (Molecules, 2020)

Key:
BChE = BChE (Equus caballus, UniProt P81908); assay: biochemical; conditions: mean ± SD; for inhibition at 1000 µM: read-out: BChE % Inhibition 10^−3 M, compound at 10^−3 M; for inhibition at 100 µM: read-out: BChE % Inhibition 10^−4 M, compound at 10^−4 M
Procedure: (§1) The reagents and materials used in the enzyme inhibition assay were supplied commercially from Sigma-Aldrich (St. Louis, MO, USA) and Fluka (Steinheim, Germany). The cholinesterase enzyme inhibition procedure was applied as previously reported in our research papers.
(§2) Moreover, the IC50 values were calculated with the help of GraphPad ‘PRISM’ software (version 5.0) by using a dose–response curve achieved by plotting the percentage inhibition versus the log concentration.
(§3) All of the attained 3-((2-(4-(4-(trifluoromethyl)phenyl)thiazol-2-yl)hydrazineylidene)methyl)-substituedphenyl derivatives were investigated with regard to their ability to inhibit the activity of cholinesterase enzymes using the in vitro modified Ellman’s spectrophotometric method previously described.
(§4) Therefore, the IC50 values of the selected compounds and reference agents were calculated.

AChE [1] = biological target: T1, AChE (Electrophorus electricus, UniProt O42275); assay: AChE inhibition, modified Ellman spectrophotometric method; type: biochemical; conditions: for inhibition at 10 µM: read-out: AChE % Inhibition 10^-5 M; for inhibition at 1 µM: read-out: AChE % Inhibition 10^-6 M; for inhibition at 0.1 µM: read-out: AChE % Inhibition 10^-7 M; for inhibition at 0.01 µM: read-out: AChE % Inhibition 10^-8 M; for inhibition at 0.001 µM: read-out: AChE % Inhibition 10^-9 M; for inhibition at 1000 µM: read-out: AChE % Inhibition 10^−3 M; for inhibition at 100 µM: read-out: AChE % Inhibition 10^−4 M
Procedure: as §1, §2, §3, §4

AChE [2] = biological target: T1, AChE; assay: Kinetic studies of AChE inhibition (Lineweaver–Burk plots, substrate ATC); type: biochemical; conditions: Lineweaver–Burk plot; IC50/2, IC50, 2xIC50; ATC 600–18.75 µM
Procedure: For this purpose, this compound was prepared at different concentrations (IC50, 2xIC50 and IC50/2). […] The Ki values of the compound were easily calculated from the second plot with a common intercept on the x-axis (corresponding to −Ki).
Enzyme kinetics studies were conducted to determine the mechanism of inhibition of AChE using a procedure similar to that of the inhibition assay for cholinesterase enzymes. […] Linear Lineweaver–Burk graphs were used to estimate the type of inhibition of this compound.
According to the Lineweaver–Burk plots, the type of inhibition consists of two general classes: reversible or irreversible.

BChE, sequence (P81908 whole entry): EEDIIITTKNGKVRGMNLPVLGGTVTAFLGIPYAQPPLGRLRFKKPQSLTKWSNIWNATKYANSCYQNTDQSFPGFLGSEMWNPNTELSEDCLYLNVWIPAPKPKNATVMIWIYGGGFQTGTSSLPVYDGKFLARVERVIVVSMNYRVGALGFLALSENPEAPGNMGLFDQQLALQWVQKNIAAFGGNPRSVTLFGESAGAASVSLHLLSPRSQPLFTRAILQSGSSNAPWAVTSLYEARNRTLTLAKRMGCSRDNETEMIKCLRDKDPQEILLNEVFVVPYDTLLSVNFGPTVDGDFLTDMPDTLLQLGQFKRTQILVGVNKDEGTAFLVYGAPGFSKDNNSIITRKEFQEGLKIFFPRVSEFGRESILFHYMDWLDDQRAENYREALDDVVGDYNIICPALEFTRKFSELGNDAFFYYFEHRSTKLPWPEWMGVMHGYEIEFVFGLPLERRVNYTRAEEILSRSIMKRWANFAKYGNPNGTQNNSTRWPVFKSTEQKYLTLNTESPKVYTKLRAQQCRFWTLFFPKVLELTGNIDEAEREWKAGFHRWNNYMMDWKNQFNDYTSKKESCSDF
T1 sequence (O42275 24-633): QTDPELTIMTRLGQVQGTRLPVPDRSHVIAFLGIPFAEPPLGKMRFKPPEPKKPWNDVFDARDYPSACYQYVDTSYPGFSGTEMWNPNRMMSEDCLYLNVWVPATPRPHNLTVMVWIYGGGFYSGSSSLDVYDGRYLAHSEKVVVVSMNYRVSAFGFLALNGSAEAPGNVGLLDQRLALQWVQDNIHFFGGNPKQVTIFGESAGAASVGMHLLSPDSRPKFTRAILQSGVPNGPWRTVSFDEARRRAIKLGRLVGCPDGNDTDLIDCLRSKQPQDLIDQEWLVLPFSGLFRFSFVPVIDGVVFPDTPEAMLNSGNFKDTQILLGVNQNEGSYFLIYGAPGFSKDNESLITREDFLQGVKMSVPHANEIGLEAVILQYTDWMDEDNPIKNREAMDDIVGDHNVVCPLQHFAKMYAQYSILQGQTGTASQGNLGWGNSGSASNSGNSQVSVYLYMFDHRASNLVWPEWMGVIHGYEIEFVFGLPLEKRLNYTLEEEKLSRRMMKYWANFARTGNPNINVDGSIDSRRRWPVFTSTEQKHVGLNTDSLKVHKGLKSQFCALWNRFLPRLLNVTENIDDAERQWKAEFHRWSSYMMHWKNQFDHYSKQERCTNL

Row | SMILES | inhibition at 1000 µM (BChE) | inhibition at 100 µM (BChE) | inhibition at 10 µM (AChE [1]) | inhibition at 1 µM (AChE [1]) | inhibition at 0.1 µM (AChE [1]) | inhibition at 0.01 µM (AChE [1]) | inhibition at 0.001 µM (AChE [1]) | inhibition at 1000 µM (AChE [1]) | inhibition at 100 µM (AChE [1]) | AChE inhibition profile in words (AChE [1]) | type of inhibition of AChE (AChE [2])
1 | Oc1cccc(C=NNc2nc(-c3ccc(C(F)(F)F)cc3)cs2)c1 [2a, 3-[(2-{4-[4-(Trifluoromethyl)phenyl]thiazol-2-yl}hydrazineylidene)methyl]phenol] | > 50% | 42.5 ± 0.978% | 81.2% | 74.2% | 61% | 41.3% | 20.4% | 93.4 ± 1.65% | 90.5 ± 1.32% |  | 
2 | Oc1ccc(C=NNc2nc(-c3ccc(C(F)(F)F)cc3)cs2)cc1 [2b, 4-[(2-{4-[4-(Trifluoromethyl)phenyl]thiazol-2-yl}hydrazineylidene)methyl]phenol] | > 50% | 40.5 ± 0.71% | 74.6% | 63.8% | 58% | 43.9% | 21.2% | 90.3 ± 1.45% | 82.2 ± 1.48% |  | 
3 | Oc1cccc(C=NNc2nc(-c3ccc(C(F)(F)F)cc3)cs2)c1O [2c, 3-[(2-{4-[4-(Trifluoromethyl)phenyl]thiazol-2-yl}hydrazineylidene)methyl]benzene-1,2-diol] | 43.6 ± 0.955% | 32.5 ± 0.721% |  |  |  |  |  | 78.2 ± 1.02% | 45.1 ± 0.971% |  | 
4 | COc1ccccc1C=NNc1nc(-c2ccc(C(F)(F)F)cc2)cs1 [2d, 2-[2-(2-Methoxybenzylidene)hydrazineyl]-4-[4-(trifluoromethyl)phenyl]thiazole] | > 50% | 43.8 ± 0.895% | 78.1% | 67.3% | 55.9% | 38.2% | 29.8% | 89.5 ± 2.04% | 82.4 ± 1.7% | moderate | 
5 | COc1cccc(C=NNc2nc(-c3ccc(C(F)(F)F)cc3)cs2)c1 [2e, 2-[2-(3-Methoxybenzylidene)hydrazineyl]-4-[4-(trifluoromethyl)phenyl]thiazole] | > 50% | 41.6 ± 0.907% | 81.8% | 74.8% | 62.4% | 44.3% | 21.6% | 90.6 ± 1.81% | 85.4 ± 1.73% |  | 
6 | COc1cccc(C=NNc2nc(-c3ccc(C(F)(F)F)cc3)cs2)c1OC [2f, 2-[2-(2,3-Dimethoxybenzylidene)hydrazineyl]-4-[4-(trifluoromethyl)phenyl]thiazole] | 40.9 ± 0.895% | 31.5 ± 0.82% |  |  |  |  |  | 71.7 ± 1.4% | 40.5 ± 0.89% |  | 
7 | COc1ccc(C=NNc2nc(-c3ccc(C(F)(F)F)cc3)cs2)cc1OC [2g, 2-[2-(3,4-Dimethoxybenzylidene)hydrazineyl]-4-[4-(trifluoromethyl)phenyl]thiazole] | > 50% | 40.4 ± 0.845% | 81.5% | 76.9% | 69.2% | 43.1% | 24.9% | 93.5 ± 1.63% | 88.3 ± 1.6% |  | 
8 | FC(F)(F)c1ccc(-c2csc(NN=Cc3ccc4c(c3)OCO4)n2)cc1 [2h, 2-[2-(Benzo[1,3]dioxol-5-ylmethylene)hydrazineyl]-4-[4-(trifluoromethyl)phenyl]thiazole] | 45.8 ± 0.926% | 34.3 ± 0.738% |  |  |  |  |  | 77.6 ± 1.76% | 41.9 ± 0.976% |  | 
9 | COc1ccc(C=NNc2nc(-c3ccc(C(F)(F)F)cc3)cs2)cc1O [2i, 2-Methoxy-5-[(2-{4-[4-(trifluoromethyl)phenyl]thiazol-2-yl}hydrazineylidene)methyl]phenol] | > 50% | 41.5 ± 0.87% | 86.6% | 81% | 71.8% | 42.7% | 22.2% | 95.2 ± 1.5% | 92.1 ± 1.8% |  | reversible and mixed-type
10 | COc1ccc(O)c(C=NNc2nc(-c3ccc(C(F)(F)F)cc3)cs2)c1 [2j, 4-Methoxy-2-[(2-{4-[4-(trifluoromethyl)phenyl]thiazol-2-yl}hydrazineylidene)methyl]phenol] | > 50% | 39.6 ± 0.865% | 76.8% | 62.1% | 57.4% | 40.7% | 25.6% | 91.3 ± 2.11% | 84.9 ± 1.37% | moderate | 
11 | COc1cc(C=NNc2nc(-c3ccc(C(F)(F)F)cc3)cs2)cc(OC)c1OC [2k, 4-[4-(Trifluoromethyl)phenyl]-2-[2-(3,4,5-trimethoxybenzylidene)hydrazineyl]thiazole] | 40.2 ± 0.902% | 25.6 ± 0.633% |  |  |  |  |  | 65.3 ± 1.04% | 40.8 ± 0.94% |  | 
12 | COc1cc(C=NNc2nc(-c3ccc(C(F)(F)F)cc3)cs2)cc(OC)c1O [2l, 2,6-Dimethoxy-4-[(2-{4-[4-(trifluoromethyl)phenyl]thiazol-2-yl}hydrazineylidene)methyl]phenol] | 38.7 ± 0.815% | 23.2 ± 0.759% |  |  |  |  |  | 62.8 ± 1.28% | 35.4 ± 0.895% |  | 
